Reference: patent publication US20120282377A1, “Methods and Formulations for Inhibiting Degradation of Photosensitive Sweeteners and Sweetener Enhancers” (priority 2011, published 2012)

Legend:
Type in all cases: physicochemical
[1] = Sucrose enhancer stability in prototype beverage formulation, UV irradiation in Atlas SunTest XLS+ (Example 6)
Procedure: The stability of sucrose enhancer 3-((4-amino-2,2-dioxido-1H-benzo[c][1,2,6]thiadiazin-5-yl)oxy)-2,2-dimethyl-N-propylpropanamide in regular PET bottles and PET bottles with UV barrier was evaluated. A control formulation was used that contained 106 mg sucrose enhancer in 4163 mg of a prototype beverage formulation. The prototype beverage formulation contained water, HFCS-55, citric acid, potassium citrate, EDTA, salts and vitamins. The samples were exposed to UV light using different Langley irradiation energy exposure at 40° C. in Atlas SunTest XLS+chamber.

[2] = Stability of sweetness enhancer to sunlight exposure in PET bottle with and without UV barrier (Example 1); settings: 25 mg/L solution, 395 Langleys (Atlas Sun Test XLS+)
Procedure: Sweetness enhancer 3-((4-amino-2,2 -dioxido-1H-benzo [c][1,2,6]thiadiazin-5-yl)oxy)-2,2-dimethyl-N-propylpropanamide was evaluated for stability to sunlight exposure when formulated into a beverage packaged in PET packaging (bottle) with and without a UV barrier. The UV barrier PET bottle contained a UV absorbent compound that absorbs light up to approximately 390 nm. When a 25 mg/L solution of 3-((4-amino-2,2-dioxido-1H-benzo[c][1,2,6]thiadiazin-5-yl)oxy)-2,2-dimethyl-N-propylpropanamide was exposed to 395 Langleys of radiation (Atlas Sun Test XLS+Instrument) in a clear PET bottle with no UV barrier, 92% of 3-((4-amino-2,2 -dioxido-1H-benzo [c][1,2,6]thiadiazin-5-yl)oxy)-2,2-dimethyl-N-propylpropanamide was lost to degradation. The light exposure in this experiment was approximately equivalent to 24 hours of continuous irradiation or 2-3 days of normal sunlight irradiation (due to day/night cycle). In contrast, when the same experiment was carried out in a UV barrier PET bottle, only 10% of the 3-((4-amino-2,2-dioxido-1H-benzo[c][1,2,6]thiadiazin-5-yl)oxy)-2,2-dimethyl-N-propylpropanamide was lost to degradation.

[3] = Photodegradation on exposure to sunlight / UV light (background statements); settings: sunlight for 2-3 days
From the text: Monatin (2-amino-4-carboxy-4-hydroxy-5-(3-indolyl)-pentanoic acid or 4-hydroxy-4-(3-indolylmethyl)-glutamic acid) is a natural sweetener. Monatin contains two chiral centers and therefore has four potential isomeric configurations: R,R-; S,S-; R,S-; and S,R-monatin. Different stereoisomers have different sweetening characteristics. Amino et al. have reported that the sweetness intensity is dependent on the optical purity of each stereoisomer (U.S. Patent Publication No. 2005/0020508).

[4] = prototype beverage formulation (control), PET, 0 Langley
[5] = prototype beverage formulation, PET with UV barrier, 66 Langley, 40° C.
[6] = prototype beverage formulation, PET with UV barrier, 197 Langley, 40° C.
[7] = prototype beverage formulation, PET with UV barrier, 395 Langley, 40° C.
[8] = prototype beverage formulation, PET, 66 Langley, 40° C.
[9] = prototype beverage formulation, PET, 197 Langley, 40° C.
[10] = prototype beverage formulation, PET, 395 Langley, 40° C.

Loss of Sucrose Enhancer (%) [1, 4]: 0%
Remaining Sucrose Enhancer (%) [1, 4]: 100%
Remaining Sucrose Enhancer (ppm) [1, 4]: 21.5 ppm
Loss of Sucrose Enhancer (%) [1, 5]: 4%
Remaining Sucrose Enhancer (%) [1, 5]: 96%
Remaining Sucrose Enhancer (ppm) [1, 5]: 20.7 ppm
Loss of Sucrose Enhancer (%) [1, 6]: 5%
Remaining Sucrose Enhancer (%) [1, 6]: 95%
Remaining Sucrose Enhancer (ppm) [1, 6]: 20.5 ppm
Loss of Sucrose Enhancer (%) [1, 7]: 10%
Remaining Sucrose Enhancer (%) [1, 7]: 90%
Remaining Sucrose Enhancer (ppm) [1, 7]: 19.3 ppm
Loss of Sucrose Enhancer (%) [1, 8]: 37%
Remaining Sucrose Enhancer (%) [1, 8]: 63%
Remaining Sucrose Enhancer (ppm) [1, 8]: 13.6 ppm
Loss of Sucrose Enhancer (%) [1, 9]: 75%
Remaining Sucrose Enhancer (%) [1, 9]: 25%
Remaining Sucrose Enhancer (ppm) [1, 9]: 5.4 ppm
Loss of Sucrose Enhancer (%) [1, 10]: 92%
Remaining Sucrose Enhancer (%) [1, 10]: 7.9%
Remaining Sucrose Enhancer (ppm) [1, 10]: 1.7 ppm
lost to degradation ([2]; UV barrier PET bottle): 10%
lost to degradation ([2]; clear PET bottle with no UV barrier): 92%
Compound: CCCNC(=O)C(C)(C)COc1cccc2c1C(N)=NS(=O)(=O)N2 [Sucrose enhancer, 3-((4-amino-2,2-dioxido-1H-benzo[c][1,2,6]thiadiazin-5-yl)oxy)-2,2-dimethyl-N-propylpropanamide]
degradation upon exposure to sunlight [3]: completely degraded to inactive ingredients
